# Reference: patent publication US8765791B2, “Method of treating cancer using a neuropeptide Y 5R (NP Y5R) antagonist” (University Health Network, priority 2008, dated 2014)
# Experiments:
# [1] = tested on: Breast cancer cells, MDA MB 468; test: breast cancer xenograft model (Example 11); type: in vivo, SCID mice; conditions: 10 mg/kg i.p. 3/week, approximately 4 weeks
# Protocol: Breast cancer cells, MDA MB 468 (12 million), were injected subcutaneously (s.c.) on the neck of SCID mice (CB17, female, 4-6 weeks old) (Charles River, Wilmington, Mass.). The mice were divided into four groups, 5 mice for each group. The treatments were started when the tumor volume reached about 100 mm^3, day 22 after tumor implantation. […] The tumor sizes were monitored every 3 or 4 days. […] (FIG. 12)
# [2] = tested on: Breast cancer cells, MDA MB 468; test: breast cancer xenograft model, MK0557 and 5-FU (Example 15); type: in vivo, CB17-SCID; conditions: 5-FU alone, 30 mg/kg ip q.d.×5 days
# Protocol: Breast cancer cells, MDA MB 468, were injected into CB17-SCID. The treatments were started day 14 after tumor implantation. […] Tumor volume and tumor growth were monitored during the experiment.
# [3] = tested on: Hodgkin Lymphoma cells, HD-MYZ; test: Hodgkin's lymphoma xenograft model, MK-0557 and 200464 (Example 16); type: in vivo; conditions: for inhibition rate (tumor volume) / inhibition rate (tumor weight): versus vehicle
# Excerpt: Hodgkin lymphoma cells, HD-MYZ, were implanted in NOD-SCID mice, female, 4-6 weeks from Jackson's Laboratory (Maine). The treatments were started day 6 after tumor implantation. The mice were divided to six groups, 4-5 mice from each group. The treatment started with a tumor volume of about 70 mm3 after tumor implantation.
# [4] = tested on: Hodgkin Lymphoma cells, HD-MYZ; test: Hodgkin lymphoma xenograft model (Example 12); type: in vivo, NOD-SCID mice; conditions: 5 mg/kg i.p. 1/week, approximately 2 weeks
# Excerpt: Hodgkin lymphoma cells, HD-MYZ (1 million), were implanted s.c. on the right flank of NOD-SCID mice (Cat#001303, female, 4-6 weeks from Jackson laboratories, Bar Harbor, Me.). The mice were divided into four groups, 5 mice for each group. […] The tumor growth was monitored during the experiment. […] (FIG. 13)
# [5] = tested on: Hodgkin Lymphoma cells, HD-MYZ; test: Hodgkin lymphoma xenograft model, MK0557 vs AVASTIN (Example 14); type: in vivo, NOD-SCID mice; conditions: 5 mg/kg i.p. 1/week×3 weeks
# Excerpt: Hodgkin lymphoma cells, HD-MYZ, were implanted in NOD-SCID mice. […] Tumor volume and tumor growth were monitored during the experiment.
# [6] = group 2: 200464 20 mg/kg i.p. 3 times for each week
# [7] = group 3: 200464 40 mg/kg i.p. 3 times for each week
compound,measurement,setting,value
"O=c1[nH]cc(F)c(=O)[nH]1 [5-FU, 5-fluorouracil]",tumor growth,[1],inhibited tumor growth
same,Mean Tumor Volume,[2],434.44±56.63 mm^3
same,Mean Tumor Weight,[2],0.1892 ± 0.026 g
same,inhibition rate (tumor volume),[2]; versus vehicle,32.35%
same,inhibition rate (tumor weight),[2]; versus vehicle,26.55%
CC[C@@H]1C(=O)N(C)c2cnc(Nc3ccc(C(=O)NC4CCN(C)CC4)cc3OC)nc2N1C1CCCC1 [compound 200464],Mean Tumor Volume,[3]; [6],754.55+/−158.32 mm^3
same,Mean Tumor Weight,[3]; [6],0.8788 ± 0.2674 g
same,inhibition rate (tumor volume),[3]; [6],62.26%
same,inhibition rate (tumor weight),[3]; [6],5.42%
same,Mean Tumor Volume,[3]; [7],565.75+/−176.13 mm^3
same,Mean Tumor Weight,[3]; [7],0.5472 ± 0.2097 g
same,inhibition rate (tumor volume),[3]; [7],49.66%
same,inhibition rate (tumor weight),[3]; [7],41.11%
same,tolerability of the doses by the mice,"[3]; mouse, in vivo",well tolerated
bevacizumab [AVASTIN®],tumor growth,[4],inhibited tumor growth
same,Mean Tumor Volume,[5],672.53±85.56 mm^3
same,Mean Tumor Weight,[5],0.33 ± 0.03 g
same,inhibition rate (tumor volume),[5]; versus vehicle,74.14%
same,inhibition rate (tumor weight),[5]; versus vehicle,86.96%
